Measured values published in the NIST ThermoML archive (doi:10.1016/j.tca.2009.10.001).
± gives the expanded uncertainty stated by the source.

Assay: xn = mol fraction of the nth substance listed
Details: 101 kPa, Liquid; for speed of sound: Linear variable-path acoustic interferometer; for mass density: Pycnometric method; for viscosity: Capillary tube (Ostwald / Ubbelohde) method

CC#N [acetonitrile] + Cc1ccccc1
Details | mass density, 303.15 K [kg/m3] | mass density, 308.15 K [kg/m3] | speed of sound, 303.15 K [m/s] | speed of sound, 308.15 K [m/s] | viscosity, 308.15 K [mPa·s]
x2 = 0 | 769.9 ± 0.3 | 764.7 ± 0.4 | – | 1231.7 ± 1.7 | 0.3414 ± 0.0052
x2 = 0.0506 | 779 ± 0.3 | 773.6 ± 0.4 | – | 1233.4 ± 1.7 | 0.3503 ± 0.0052
x2 = 0.1082 | 788.4 ± 0.3 | 782.9 ± 0.3 | – | 1235.5 ± 1.7 | 0.3609 ± 0.0052
x2 = 0.1704 | 797.5 ± 0.3 | 792 ± 0.3 | – | 1238 ± 1.7 | 0.3729 ± 0.0052
x2 = 0.2421 | 806.6 ± 0.3 | 801.4 ± 0.3 | – | 1240.9 ± 1.7 | 0.3864 ± 0.0053
x2 = 0.3228 | 815.7 ± 0.3 | 810.5 ± 0.3 | 1265 ± 1.7 | 1244.3 ± 1.6 | 0.4017 ± 0.0053
x2 = 0.4163 | 824.7 ± 0.3 | 819.7 ± 0.3 | 1268.2 ± 1.6 | 1247.8 ± 1.6 | 0.4193 ± 0.0053
x2 = 0.5288 | 833.8 ± 0.3 | 828.7 ± 0.3 | 1270.9 ± 1.6 | 1250.7 ± 1.6 | 0.4389 ± 0.0053
x2 = 0.6577 | 841.9 ± 0.3 | 836.9 ± 0.3 | 1273.6 ± 1.6 | 1253.5 ± 1.6 | 0.4591 ± 0.0053
x2 = 0.8089 | 849.3 ± 0.3 | 844.6 ± 0.3 | 1275.9 ± 1.5 | 1256.3 ± 1.5 | 0.4817 ± 0.0054
